Data published in US11247965B2 (VenatoRx Pharmaceuticals, Inc., priority 2017, dated 2022).
pEC50: −log10 of the molar value. Where two headings read alike, the source gives them in different places.

Legend:
[1] = In vitro cytotoxicity, MTT cell viability assay in HepG2 cells; assay type: cell-based; conditions: human
Protocol: To evaluate antiviral selectivity, the cytotoxic activity of each compound was determined using a standard cell viability assay performed on the parental HepG2 cell line. Cell viability was determined by measuring the conversion of 3-(4,5-dimethylthiazol-2-yl)-2,5-diphenyltetrazolium bromide (MTT) to the insoluble formazan salt crystal that occurs in live cells. Briefly, HepG2 cells were seeded in 96-well plates at a density of 20,000 cells per well in EMEM+10% FBS (complete growth medium) and allowed to adhere overnight in a 37° C., 5% CO2 humidified incubator. The next day, test agents were prepared by performing 8 half-log10 serial dilutions in 100% DMSO at 200× the final desired concentration in the assay. Compounds were tested over a range of concentrations from 30 μM to 1.0 nM in the assay. HepG2 cells were incubated in the presence of various concentrations of CAMs for 7 days in a 37° C., 5% CO2 humidified incubator. At the completion of the 7-day incubation period, MTT reagent was added to each well and the mixture was incubated for an additional 3-4 hours. At the completion of the incubation period, all wells were aspirated to remove the culture medium. The formazan crystals were solubilized from the cell monolayers with 100% DMSO. Plates were briefly mixed on an orbital shaker and absorbance was measured at 492 nm using a Perkin-Elmer EnVision multi-label plate reader. All absorbance values were converted to a percentage of the signal obtained from the vehicle treated controls. Absorbance values at 492 nm are directly proportional to the number of viable cells present in the sample. A CC50 value (cytotoxic concentration that results in loss of 50% cell viability) was calculated from the dose-response curve by 4-parameter, non-linear regression analysis using the GraphPad Prism software. The positive control compound, staurosporine, reduced the viability of HepG2 cells in a dose-dependent manner (CC50=100 nM).

[2] = system: HBV replication in HepAD38 cells; assay: Anti-HBV activity in HepAD38 cells, extracellular HBV DNA by QPCR; assay type: cell-based, HBV (genotype D, serotype ayw); conditions: Hepatitis B virus, HePAD38, 168 h
Protocol: The anti-HBV activity of the Capsid Assembly Modulators (CAMs) was evaluated in a cell based assay utilizing the human hepatoma cell line HepAD38 (Ladner, S K., et al., 1998). HepAD38 cells were derived from the parental line, HepG2, that were stably transfected with a construct containing an HBV genome (genotype D, serotype ayw) under the control of a tetracycline repressible CMV promoter. Upon removal of tetracycline, viral pre-genomic RNA (pgRNA) and mRNAs are expressed and infectious viral particles are assembled and secreted into the culture medium providing a reliable, robust system to measure multiple steps of the HBV life cycle. Disruption of capsid formation results in reduced levels of DNA-containing virus particles that are released into the culture supernatant. To quantify the effect of CAMs on HBV replication, we developed a sensitive QPCR-based assay that measures extracellular HBV DNA levels upon treatment of HepAD38 cells with various concentrations of test compounds.
HepAD38 cells were maintained in DMEM/F12 medium containing 10% FBS, 400 μg/mL G418 and 0.3 μg/mL tetracycline (tet+medium) to maintain repression of HBV replication. To evaluate each compound, HepAD38 cells were seeded into 24-well collagen coated culture plates (Corning BioCoat) at a density of 200,000 cells per well in 1 mL of tet+medium and allowed to adhere overnight at 37° C., 5% CO2 in a humidified incubator. The following day, test articles were subjected to half-logo serial dilutions, ranging from 30 μM to 10 nM, in 100% DMSO at 200× the desired final assay concentration. Tetracycline was removed from the cells by aspirating the tet+medium and washing the cells once with growth medium lacking tetracycline (tet-). Various concentrations of each compound were added to the appropriate wells (1:200 dilution) and the plates were returned to the incubator. Following 7 days of incubation, culture supernatants were harvested and HBV DNA levels were evaluated by QPCR and compared to the vehicle treated control wells (i.e. DMSO alone).
To quantify HBV DNA levels, cell culture supernatants were diluted 1:10 in sterile, nuclease-free water (Gibco). The diluted supernatants were subsequently added to a PCR master mix containing 1× Roche Light Cycler Master Mix, 0.5 μM forward primer, 0.5 μM reverse primer (Fwd:
0.2 μM Roche Universal Probe Library Probe 25. The volume was brought to 20 μL with nuclease-free water and amplification of the HBV target sequence was performed using a Roche LightCycler 480 QPCR instrument. PCR extended out to 45 cycles with each cycle consisting of a denaturation step at 95° C. for 10 sec., followed by an annealing step at 60° C. for 10 sec. and a brief extension step at 72° C. for 1 sec.
Extracellular HBV DNA levels, expressed in copies/mL, were determined by comparison to a standard curve (10^2-10^9 copies/mL) using the Roche LightCycler analysis software. These values were subsequently converted to percent inhibition of HBV replication by dividing the HBV DNA levels in the experimental samples with those obtained from the vehicle control (˜1-2×10^5 copies/mL). Potency, expressed as an EC50 (the effective concentration required to inhibit […] of HBV replication), was calculated from the dose-response curve using a 4-parameter non-linear regression analysis (GraphPad Prism). The nucleoside analog inhibitor entecavir was used as a positive control to validate each assay run. The EC50 value of entecavir in the HepAD38 assay was 0.5 nM, as previously reported in the literature.

[3] = read-out: Anti-HBV EC50, HepAD38 cells, extracellular HBV DNA by QPCR, 7 days of incubation

Structure (SMILES) | CC50 at 7 days ([1]; Cytotoxicity CC50) | pEC50 [2, 3] | pEC50 ([2]; positive control, HepAD38 cells, 7 days incubation, extracellular HBV DNA, read-out: EC50 in the HepAD38 assay) | CC50 at 7 days ([1]; positive control, HepG2 cells, 7 days incubation, MTT, read-out: CC50, viability of HepG2 cells)
Cc1cc(NC(=O)c2ccc(Cl)c(C(F)(F)C(=O)N3CC[C@@H](O)[C@H](O)C3)c2)ccc1F (racemic) [Example 56, (±)-4-chloro-3-(2-(3,4-dihydroxypiperidin-1-yl)-1,1-difluoro-2-oxoethyl)-N-(4-fluoro-3-methylphenyl)benzamide] | > 30 µM | > 5.30 |  | 
CCC(C)NC(=O)C(F)(F)c1cc(C(=O)Nc2ccc(F)c(F)c2)ccc1F (stereo not shown) [Example 1, 3-(2-(sec-butylamino)-1,1-difluoro-2-oxoethyl)-N-(3,4-difluorophenyl)-4-fluorobenzamide] | 5 to 30 µM | > 5.30 |  | 
O=C(Nc1ccc(F)c(F)c1)c1ccc(F)c(C(F)(F)C(=O)N2CCC(O)CC2)c1 [Example 2, 3-(1,1-difluoro-2-(4-hydroxypiperidin-1-yl)-2-oxoethyl)-N-(3,4-difluorophenyl)-4-fluorobenzamide] | 5 to 30 µM | > 5.30 |  | 
O=C(Nc1ccc(F)c(F)c1)c1ccc(F)c(C(F)(F)C(=O)N[C@H]2CCOC2)c1 [Example 3, (S)-3-(1,1-difluoro-2-oxo-2-((tetrahydrofuran-3-yl)amino)ethyl)-N-(3,4-difluorophenyl)-4-fluorobenzamide] | 5 to 30 µM | 4.52 to 5.30 |  | 
O=C(Nc1ccc(F)c(F)c1)c1ccc(F)c(C(F)(F)C(=O)N2CCOCC2)c1 [Example 4, 3-(1,1-difluoro-2-morpholino-2-oxoethyl)-N-(3,4-difluorophenyl)-4-fluorobenzamide] | 5 to 30 µM | 4.52 to 5.30 |  | 
O=C(Nc1ccc(F)c(F)c1)c1ccc(F)c(C(F)(F)C(=O)NC2CCOCC2)c1 [Example 5, 3-(1,1-difluoro-2-oxo-2-((tetrahydro-2H-pyran-4-yl)amino)ethyl)-N-(3,4-difluorophenyl)-4-fluorobenzamide] | 5 to 30 µM | 4.52 to 5.30 |  | 
O=C(Nc1ccc(F)c(F)c1)c1ccc(F)c(C(F)(F)C(=O)NCC2COCCO2)c1 (stereo not shown) [Example 6, 3-(2-(((1,4-dioxan-2-yl)methyl)amino)-1,1-difluoro-2-oxoethyl)-N-(3,4-difluorophenyl)-4-fluorobenzamide] | 5 to 30 µM | 4.52 to 5.30 |  | 
CC(C)NC(=O)C(F)(F)c1cc(C(=O)Nc2ccc(F)c(F)c2)ccc1F [Example 7, 3-(1,1-difluoro-2-(isopropylamino)-2-oxoethyl)-N-(3,4-difluorophenyl)-4-fluorobenzamide] | 5 to 30 µM | 4.52 to 5.30 |  | 
O=C(Nc1ccc(F)c(F)c1)c1ccc(F)c(C(F)(F)C(=O)NC2CCCCC2)c1 [Example 8, 3-(2-(cyclohexylamino)-1,1-difluoro-2-oxoethyl)-N-(3,4-difluorophenyl)-4-fluorobenzamide] | 5 to 30 µM | 4.52 to 5.30 |  | 
Cc1ccc(C(=O)Nc2ccc(F)c(F)c2)cc1C(F)(F)C(=O)NC(C)C [Example 9, 3-(1,1-difluoro-2-(isopropylamino)-2-oxoethyl)-N-(3,4-difluorophenyl)-4-methylbenzamide] | > 30 µM | < 4.52 |  | 
Cc1ccc(C(=O)Nc2ccc(F)c(F)c2)cc1C(F)(F)C(=O)N1CCC(O)CC1 [Example 10, 3-(1,1-difluoro-2-(4-hydroxypiperidin-1-yl)-2-oxoethyl)-N-(3,4-difluorophenyl)-4-methylbenzamide] | 5 to 30 µM | 4.52 to 5.30 |  | 
O=C(Nc1ccc(F)c(F)c1)c1ccc(F)c(C(F)(F)C(=O)N2CCCCC2)c1 [Example 11, 3-(1,1-difluoro-2-oxo-2-(piperidin-1-yl)ethyl)-N-(3,4-difluorophenyl)-4-fluorobenzamide] | 5 to 30 µM | 4.52 to 5.30 |  | 
O=C(Nc1ccc(F)c(F)c1)c1ccc(F)c(C(F)(F)C(=O)N2CC[C@H](O)C2)c1 [Example 12, (S)-3-(1,1-difluoro-2-(3-hydroxypyrrolidin-1-yl)-2-oxoethyl)-N-(3,4-difluorophenyl)-4-fluorobenzamide] | 5 to 30 µM | 4.52 to 5.30 |  | 
O=C(Nc1ccc(F)c(F)c1)c1ccc(F)c(C(F)(F)C(=O)N2CC[C@H](CO)C2)c1 [Example 13, (S)-3-(1,1-difluoro-2-(3-(hydroxymethyl)pyrrolidin-1-yl)-2-oxoethyl)-N-(3,4-difluorophenyl)-4-fluorobenzamide] | 5 to 30 µM | 4.52 to 5.30 |  | 
Cc1cc(NC(=O)c2cccc(C(F)(F)C(=O)N3CCC(O)CC3)c2)ccc1F [Example 14, 3-(1,1-difluoro-2-(4-hydroxypiperidin-1-yl)-2-oxoethyl)-N-(4-fluoro-3-methylphenyl)benzamide] | 5 to 30 µM | > 5.30 |  | 
O=C(Nc1ccc(F)c(F)c1)c1ccc(F)c(C(F)(F)C(=O)N2CCCC(O)C2)c1 (stereo not shown) [Example 15, 3-(1,1-difluoro-2-(3-hydroxypiperidin-1-yl)-2-oxoethyl)-N-(3,4-difluorophenyl)-4-fluorobenzamide] | 5 to 30 µM | > 5.30 |  | 
Cn1cc(C(=O)Nc2ccc(F)c(Cl)c2)cc1C(F)(F)C(=O)NC(C)(C)C [Example 139, 5-(2-(tert-butylamino)-1,1-difluoro-2-oxoethyl)-N-(3-chloro-4-fluorophenyl)-1-methyl-1H-pyrrole-3-carboxamide] |  | > 5.30 |  | 
Cc1cc(NC(=O)c2ccc(F)c(C(F)(F)C(=O)N3CCn4c(cnc4C(F)(F)F)C3)c2)ccc1F [Example 312, 3-(1,1-difluoro-2-oxo-2-(3-(trifluoromethyl)-5,6-dihydroimidazo[1,5-a]pyrazin-7(8H)-yl)ethyl)-4-fluoro-N-(4-fluoro-3-methylphenyl)benzamide] |  | > 5.30 |  | 
Cc1cc(NC(=O)c2ccc(F)c(C(F)(F)C(=O)N3[C@@H]4CC[C@H]3c3sc(N)nc3C4)c2)ccc1F [Example 313, 3-(2-((5R,8S)-2-amino-5,6,7,8-tetrahydro-4H-5,8-epiminocyclohepta[d]thiazol-9-yl)-1,1-difluoro-2-oxoethyl)-4-fluoro-N-(4-fluoro-3-methylphenyl)benzamide] |  | > 5.30 |  | 
C=C1[C@H](CO)[C@@H](O)C[C@@H]1n1cnc2c(=O)[nH]c(N)nc21 [entecavir, reference compound] |  |  | 9.30 | 
CN[C@@H]1C[C@H]2O[C@@](C)([C@@H]1OC)n1c3ccccc3c3c4c(c5c6ccccc6n2c5c31)C(=O)NC4 [staurosporine, reference compound] |  |  |  | 0.1 µM
